Results: ChEMBL document CHEMBL1155545, “Design, synthesis and evaluation of 2,4-disubstituted pyrimidines as cholinesterase inhibitors” (Bioorg Med Chem Lett, 2010)

Key:
[1] = target: Acetylcholinesterase (Electrophorus electricus, UniProt O42275)
Description: Inhibition of electric eel AChE

[2] = target: Cholinesterase (Equus caballus, UniProt P81908)
Sequence of Cholinesterase (P81908 whole entry): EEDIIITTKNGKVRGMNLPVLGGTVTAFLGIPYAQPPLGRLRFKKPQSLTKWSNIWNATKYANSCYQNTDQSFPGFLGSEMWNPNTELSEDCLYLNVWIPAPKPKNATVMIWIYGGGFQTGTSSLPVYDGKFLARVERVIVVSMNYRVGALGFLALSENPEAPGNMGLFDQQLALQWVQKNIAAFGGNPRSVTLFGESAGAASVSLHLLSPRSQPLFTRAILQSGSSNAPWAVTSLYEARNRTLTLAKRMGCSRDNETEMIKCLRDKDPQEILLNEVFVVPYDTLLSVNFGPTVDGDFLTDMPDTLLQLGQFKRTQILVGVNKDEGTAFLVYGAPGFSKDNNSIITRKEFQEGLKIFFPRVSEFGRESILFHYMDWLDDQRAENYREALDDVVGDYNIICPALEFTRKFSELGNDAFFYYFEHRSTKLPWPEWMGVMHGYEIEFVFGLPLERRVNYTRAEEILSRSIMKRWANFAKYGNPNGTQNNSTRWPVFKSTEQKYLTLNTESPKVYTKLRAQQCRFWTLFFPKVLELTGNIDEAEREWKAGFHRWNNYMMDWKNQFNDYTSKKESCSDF
Description: Inhibition of equine serum BuChE

Sequence of Acetylcholinesterase (O42275 whole entry): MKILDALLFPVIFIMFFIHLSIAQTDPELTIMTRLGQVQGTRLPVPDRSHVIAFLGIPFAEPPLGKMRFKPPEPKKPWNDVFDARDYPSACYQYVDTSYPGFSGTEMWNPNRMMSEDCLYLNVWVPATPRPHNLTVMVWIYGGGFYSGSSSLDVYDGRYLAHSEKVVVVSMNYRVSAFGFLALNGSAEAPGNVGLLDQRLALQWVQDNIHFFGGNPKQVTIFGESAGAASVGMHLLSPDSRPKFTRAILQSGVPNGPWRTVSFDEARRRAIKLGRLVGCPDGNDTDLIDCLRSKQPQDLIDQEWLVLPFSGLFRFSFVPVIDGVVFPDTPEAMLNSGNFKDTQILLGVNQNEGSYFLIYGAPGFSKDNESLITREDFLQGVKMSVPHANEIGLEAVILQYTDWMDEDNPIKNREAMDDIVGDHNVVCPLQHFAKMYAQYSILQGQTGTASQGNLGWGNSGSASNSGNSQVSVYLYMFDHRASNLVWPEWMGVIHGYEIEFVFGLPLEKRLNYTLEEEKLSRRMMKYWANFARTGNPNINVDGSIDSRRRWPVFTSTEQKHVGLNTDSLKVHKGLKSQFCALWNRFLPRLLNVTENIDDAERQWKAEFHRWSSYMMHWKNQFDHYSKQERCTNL

Structure (SMILES) | IC50 [1] [µM] | IC50 [2] [µM]
CN1CCN(c2nccc(NCc3cccc4ccccc34)n2)CC1 | 17.6 | 2.6
c1ccc(CNc2ccnc(N3CCCC3)n2)cc1 | 9.8 | 26.4
CC1CCN(c2nccc(NCCc3ccccc3)n2)CC1 | 7.9 | 17.7
c1ccc(CNc2ccnc(N3CCOCC3)n2)cc1 | 0.5 | 
c1ccc(CCNc2ccnc(N3CCOCC3)n2)cc1 | 4.8 | > 100
c1ccc2c(NCCCCCCCNc3c4c(nc5ccccc35)CCCC4)c3c(nc2c1)CCCC3 | 0.0018 | 0.0105
c1ccc(CCNc2ccnc(N3CCSCC3)n2)cc1 | 25 | > 100
CN1CCN(c2nccc(NCCc3ccccc3)n2)CC1 | 14.4 | > 100
c1ccc(CNc2ccnc(N3CCSCC3)n2)cc1 | 0.33 | 2.3
CN1CCN(c2nccc(NCc3ccccc3)n2)CC1 | 0.56 | > 100
c1ccc2c(CNc3ccnc(N4CCSCC4)n3)cccc2c1 | 15.5 | 
CC1CCN(c2nccc(NCc3ccccc3)n2)CC1 | 0.39 | 2.9
c1ccc2c(CNc3ccnc(N4CCOCC4)n3)cccc2c1 | 15.7 | 28
c1ccc2c(CNc3ccnc(N4CCCC4)n3)cccc2c1 | 5.8 | 8.9
